*1 amine or outer side, *2 acyl side, *3 side chain or, on linkers, in order; H or OH if unused. Where a SMILES comes first, the peptide text is derived from it. Bridges are numbered along the chain shown (N, C = ends). X1 = C=C(N[*:2])c1nc(-c2nc(-c3nc(C(=O)OC)cs3)ccc2C(=O)[*:1])cs1
Key:
TLR10 = target: T1, TLR10 (Homo sapiens, UniProt Q9BXR5); assay: Surface plasmon resonance (SPR) binding affinity to TLR10
T1 sequence (Q9BXR5 20-811): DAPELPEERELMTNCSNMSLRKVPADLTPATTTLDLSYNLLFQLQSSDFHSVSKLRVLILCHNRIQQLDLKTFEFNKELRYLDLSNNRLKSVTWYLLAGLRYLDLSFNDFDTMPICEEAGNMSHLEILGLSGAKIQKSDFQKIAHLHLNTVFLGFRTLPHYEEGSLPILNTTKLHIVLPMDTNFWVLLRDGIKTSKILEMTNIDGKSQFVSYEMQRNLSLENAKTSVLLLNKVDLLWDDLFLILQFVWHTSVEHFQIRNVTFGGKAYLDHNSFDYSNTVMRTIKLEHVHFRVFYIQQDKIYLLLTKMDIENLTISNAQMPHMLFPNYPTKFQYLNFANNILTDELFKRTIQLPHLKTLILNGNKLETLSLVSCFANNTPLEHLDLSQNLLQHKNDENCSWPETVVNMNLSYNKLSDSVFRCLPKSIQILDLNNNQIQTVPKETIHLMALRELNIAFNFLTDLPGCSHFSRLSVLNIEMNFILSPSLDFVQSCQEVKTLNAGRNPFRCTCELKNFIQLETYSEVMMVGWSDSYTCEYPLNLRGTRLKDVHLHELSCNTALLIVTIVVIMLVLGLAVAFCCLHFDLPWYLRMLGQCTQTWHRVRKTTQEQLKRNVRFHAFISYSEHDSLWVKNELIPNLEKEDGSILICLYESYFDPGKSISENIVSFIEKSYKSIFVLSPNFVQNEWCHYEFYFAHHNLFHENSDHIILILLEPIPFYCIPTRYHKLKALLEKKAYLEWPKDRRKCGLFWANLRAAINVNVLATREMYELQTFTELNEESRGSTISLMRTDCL
Method: Next, the binding affinity of each of the synthesized thiopeptides (14 types excluding IR1-ct and IR15-ct in FIG. 8) to the target IRAK4 and TLR10 was examined using surface plasmon resonance (SPR). […] Next, using an ADP-Glo-based kinase inhibition assay, the IC50 values of 4 types of thiopeptides for IRAK4 excluding IR1-ct and IR15-ct were evaluated.

[1] = Metabolic stability in human serum (LC/MS); format: in vitro ADME; conditions: 37 °C
Method: The compounds were incubated with a human serum at 37 °C, and the amount of the residual test substance at various points in time was quantified by LC/MS with respect to an internal standard substance. […] Next, it was examined whether or not the half-lives of the compounds were affected by the reactivity of the Dha residue. The Dha residue may be conjugated with various serum thiols.
In addition, the metabolic stability of all of the 14 types of candidate thiopeptides was examined. The compound was incubated with the human serum at 37 °C, and the amount of the residual thiopeptide at various points in time was quantified by LC/MS with respect to the internal standard substance. The half-life of the thiopeptide for TLR10 was generally as long as 38.2 hours, and the thiopeptide was stable.

MYC mRNA = MYC mRNA transcription in HCT116 cells (RT-qPCR); format: cell-based, human
Method: (§1) The sub-confluent HCT116 cells were treated with the indicated compounds for 24 hours and the cellular levels of TNIK, TNIK pSer764 (autophosphorylation product), c-Myc, and Axin2 were analyzed by an immunoblotting method (FIG. 7(b)) and RT-qPCR (FIG. 7(c)).

Axin2 = Axin2 protein level in HCT116 cells (immunoblotting); format: cell-based, human; conditions: 20 μM, 24 hours
Method: as §1

MST1 = target: T2, MST1 (Homo sapiens, UniProt Q13043); assay: Kinase selectivity profiling (MST1); format: biochemical; conditions: concentration of 1 μM
T2 sequence (Q13043 1-487): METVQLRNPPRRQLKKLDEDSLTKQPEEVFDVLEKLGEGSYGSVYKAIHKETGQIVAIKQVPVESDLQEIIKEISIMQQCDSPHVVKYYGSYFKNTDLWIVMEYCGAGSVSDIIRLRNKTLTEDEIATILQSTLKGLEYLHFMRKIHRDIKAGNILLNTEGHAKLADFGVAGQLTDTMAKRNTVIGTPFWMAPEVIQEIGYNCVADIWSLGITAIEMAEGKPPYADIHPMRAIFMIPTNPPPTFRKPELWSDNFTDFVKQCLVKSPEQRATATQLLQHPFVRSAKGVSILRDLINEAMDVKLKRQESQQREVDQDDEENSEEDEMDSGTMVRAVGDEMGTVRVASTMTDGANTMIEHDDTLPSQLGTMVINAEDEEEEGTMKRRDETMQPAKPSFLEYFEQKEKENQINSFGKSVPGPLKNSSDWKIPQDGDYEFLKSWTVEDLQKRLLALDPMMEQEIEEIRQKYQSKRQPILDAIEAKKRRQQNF
Method: (§2) Next, a kinase selectivity profiling experiment was carried out using a panel of various human kinases.

HEK293H cells = assay: Chloroalkane penetration assay (CAPA) in HEK293H cells; format: cell-based, human; conditions: chloroalkane-labeled derivatives
Method: as §1
Next, it was confirmed whether or not the obtained compound could also access an intracellular target protein (TNIK is localized in the cytoplasm and the cell nucleus) in a human cell model. First, a chloroalkane penetration assay (CAPA) was performed on 4 types (TP1-ct, TP8-ct, TP14-ct, and TP15-ct) out of the 6 types of chloroalkane-labeled thiopeptide derivatives shown in FIG. 5 in order to measure an uptake degree into the cytoplasm (Peraro, L.; Deprey, K. L.; Moser, M. K.; Zou, Z.; Ball, H. L.; Levine, B.; and Kritzer, J. A. Cell Penetration Profiling Using the Chloroalkane Penetration Assay. J. Am. Chem. Soc. 2018, 140, 11360-11369).

TNIK pSer764 = assay: Immunoblotting of TNIK pSer764 (TNIK autophosphorylation) in HCT116 cells; format: cell-based, human
Method: as §1
Nat. Commun. 2016, 7, 12586).

TNIK [2] = target: T3, TNIK (Homo sapiens, UniProt Q9UKE5); assay: Surface plasmon resonance (SPR) binding affinity to TNIK; conditions: saturated concentration of ATP (1 mM; 15-fold higher than KM)
Description: Surface plasmon resonance (SPR) was used to evaluate the binding affinity of the thiopeptide synthesized in Example 2 to TNIK.

TNIK [3] = assay: TNIK protein level in HCT116 cells (immunoblotting); format: cell-based, human
Method: as §1

AXIN2 mRNA = AXIN2 mRNA transcription in HCT116 cells (RT-qPCR); format: cell-based, human
Method: as §1

LOK = LOK (Homo sapiens, UniProt O94804); assay: Kinase selectivity profiling (LOK); format: biochemical; conditions: concentration of 1 μM
Method: as §2

TNIK [4] = target: T3, TNIK; assay: Kinetic analysis (Lineweaver-Burk plots) of TNIK inhibition; format: biochemical; conditions: role: inhibitor
TNIK mRNA = TNIK mRNA level in HCT116 cells (RT-qPCR); format: cell-based, human
Method: as §1

[5] = Stability / reactivity towards glutathione (GSH), LC/MS; format: physicochemical
c-Myc = c-Myc protein level in HCT116 cells (immunoblotting); format: cell-based, human; conditions: 20 μM, 24 hours
Method: as §1

T3 sequence (Q9UKE5 whole entry): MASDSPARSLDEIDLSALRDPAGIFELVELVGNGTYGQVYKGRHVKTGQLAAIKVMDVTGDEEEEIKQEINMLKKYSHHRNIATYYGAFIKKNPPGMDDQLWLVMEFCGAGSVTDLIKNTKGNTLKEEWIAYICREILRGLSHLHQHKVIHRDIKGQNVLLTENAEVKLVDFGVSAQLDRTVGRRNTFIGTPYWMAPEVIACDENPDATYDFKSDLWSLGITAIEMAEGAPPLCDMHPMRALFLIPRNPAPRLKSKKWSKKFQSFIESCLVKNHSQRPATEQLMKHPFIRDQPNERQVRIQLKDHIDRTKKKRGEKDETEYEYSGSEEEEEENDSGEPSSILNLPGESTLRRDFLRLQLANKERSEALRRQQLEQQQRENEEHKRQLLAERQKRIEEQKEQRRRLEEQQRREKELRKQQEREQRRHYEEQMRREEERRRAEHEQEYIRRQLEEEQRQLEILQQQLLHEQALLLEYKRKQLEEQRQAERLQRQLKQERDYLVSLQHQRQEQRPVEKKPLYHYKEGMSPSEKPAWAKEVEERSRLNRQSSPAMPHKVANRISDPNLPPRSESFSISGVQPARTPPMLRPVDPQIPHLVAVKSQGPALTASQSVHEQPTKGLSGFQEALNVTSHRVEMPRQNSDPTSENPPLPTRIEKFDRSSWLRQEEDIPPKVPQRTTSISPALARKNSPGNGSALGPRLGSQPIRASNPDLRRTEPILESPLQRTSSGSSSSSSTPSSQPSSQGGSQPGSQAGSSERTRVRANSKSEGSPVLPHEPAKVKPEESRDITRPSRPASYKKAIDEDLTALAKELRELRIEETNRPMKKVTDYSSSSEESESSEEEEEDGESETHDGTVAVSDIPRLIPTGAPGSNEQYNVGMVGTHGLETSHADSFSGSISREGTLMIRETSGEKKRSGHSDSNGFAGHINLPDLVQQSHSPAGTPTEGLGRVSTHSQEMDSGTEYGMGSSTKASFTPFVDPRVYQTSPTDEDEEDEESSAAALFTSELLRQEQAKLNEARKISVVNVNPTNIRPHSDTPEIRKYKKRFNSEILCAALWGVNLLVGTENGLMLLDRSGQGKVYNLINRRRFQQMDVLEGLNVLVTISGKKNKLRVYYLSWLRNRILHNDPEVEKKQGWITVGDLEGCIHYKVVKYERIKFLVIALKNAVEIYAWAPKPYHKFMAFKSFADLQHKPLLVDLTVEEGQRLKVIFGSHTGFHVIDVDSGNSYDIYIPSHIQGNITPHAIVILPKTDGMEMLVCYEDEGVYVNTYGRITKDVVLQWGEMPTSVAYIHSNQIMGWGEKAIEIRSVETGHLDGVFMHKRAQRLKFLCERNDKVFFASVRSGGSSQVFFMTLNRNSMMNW
Chain of LOK (O94804 whole entry): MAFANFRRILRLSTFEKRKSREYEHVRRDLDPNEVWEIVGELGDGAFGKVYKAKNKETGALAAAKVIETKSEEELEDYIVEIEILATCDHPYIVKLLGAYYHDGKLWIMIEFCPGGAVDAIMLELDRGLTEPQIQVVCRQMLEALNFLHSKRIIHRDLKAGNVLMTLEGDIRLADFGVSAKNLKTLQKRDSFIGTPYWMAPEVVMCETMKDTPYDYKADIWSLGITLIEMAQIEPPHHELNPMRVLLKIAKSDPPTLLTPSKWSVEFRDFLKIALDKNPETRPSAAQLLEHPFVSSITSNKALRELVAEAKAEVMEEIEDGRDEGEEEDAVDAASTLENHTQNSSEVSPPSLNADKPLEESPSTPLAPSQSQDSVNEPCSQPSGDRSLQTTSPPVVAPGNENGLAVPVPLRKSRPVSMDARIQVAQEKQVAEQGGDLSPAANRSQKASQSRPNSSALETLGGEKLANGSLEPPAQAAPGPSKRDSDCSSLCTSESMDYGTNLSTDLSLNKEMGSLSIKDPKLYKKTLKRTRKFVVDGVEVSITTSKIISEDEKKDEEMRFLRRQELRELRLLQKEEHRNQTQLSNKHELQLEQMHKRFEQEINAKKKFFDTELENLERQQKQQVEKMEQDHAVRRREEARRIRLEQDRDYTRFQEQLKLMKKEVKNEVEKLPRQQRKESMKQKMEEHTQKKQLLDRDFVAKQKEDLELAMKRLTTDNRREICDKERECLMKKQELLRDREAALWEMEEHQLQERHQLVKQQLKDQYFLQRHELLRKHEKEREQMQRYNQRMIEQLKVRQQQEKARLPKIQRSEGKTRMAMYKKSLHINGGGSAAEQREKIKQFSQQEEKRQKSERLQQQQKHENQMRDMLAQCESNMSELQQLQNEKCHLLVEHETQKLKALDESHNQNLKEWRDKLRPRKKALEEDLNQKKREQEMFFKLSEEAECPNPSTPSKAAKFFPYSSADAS

SMILES	Kd (TLR10) [nM]	stability in human serum, in words [1]	transcription of MYC mRNA (MYC mRNA)	protein level of Axin2 (Axin2)	inhibition of MST1 (MST1)	cytoplasmic uptake (CAPA), in words (HEK293H cells)	level of TNIK pSer764 (TNIK pSer764; 20 μM of TP15, 24 hours, immunoblotting)	TNIK autophosphorylation, in words (figure legend) (TNIK pSer764; 24 hours)	binding to TNIK in the presence of ATP (TNIK [2])	overall expression of TNIK, protein level (TNIK [3])	transcription of AXIN2 mRNA (AXIN2 mRNA)	inhibition of LOK (LOK)	mode of TNIK inhibition (TNIK [4])	overall expression of TNIK, mRNA level (TNIK mRNA)	residual amount in the presence of GSH ([5]; 10 mM GSH, after 24 hours) [%]	reactivity with GSH, in words ([5]; increasing concentration of glutathione (GSH))	protein level of c-Myc (c-Myc)
C=C1NC(=O)[C@H](Cc2c[nH]cn2)NC(=O)[C@H]([C@@H](C)CC)NC(=O)[C@H](C(C)C)NC(=O)[C@H](C(C)C)NC(=O)[C@H](CC(N)=O)NC(=O)[C@H](C(C)C)NC(=O)[C@H](CCCNC(=N)N)NC(=O)[C@H](CO)NC(=O)[C@H](CC(C)C)NC(=O)[C@H](CCC(=O)O)NC(=O)[C@H](CC(C)C)NC(=O)[C@H](CO)NC(=O)[C@H](Cc2c[nH]c3ccccc23)NC(=O)c2ccc(-c3nc(C(=O)OC)cs3)nc2-c2csc1n2 [TL7] (WSLELSRVNVVIH; linker N-C via X1)	306																
C=C1NC(=O)c2csc(n2)[C@H]([C@@H](C)O)NC(=O)[C@H](C)NC(=O)[C@H]([C@@H](C)CC)NC(=O)[C@H](CCCNC(=N)N)NC(=O)CNC(=O)[C@H](CCCNC(=N)N)NC(=O)[C@H]([C@@H](C)O)NC(=O)[C@H](CCCNC(=N)N)NC(=O)[C@H]([C@@H](C)CC)NC(=O)[C@H]([C@@H](C)O)NC(=O)[C@H](Cc2c[nH]c3ccccc23)NC(=O)c2ccc(-c3nc(C(=O)OC)cs3)nc2-c2csc1n2 [TP15]		short half-life	suppressed in a concentration-dependent manner	decreased	inhibited	efficient cytoplasmic translocation	decreased	inhibition of TNIK autophosphorylation	bonded to TNIK in the presence of the saturated concentration of ATP	not TP15	suppressed in a concentration-dependent manner	inhibited	substrate competitive inhibitor	not TP15	> 95	stable	decreased
